{"source": "patent US20140045776A1", "about": "“METHOD FOR INCREASING THE SHELF LIFE OF FOOD PRODUCTS” (GALACTIC S.A., priority 2011, published 2014)", "tested_on": "aerobic bacteria", "experiment": "Shelf life of minced meat stored at 4° C. (total number of aerobic bacteria)", "type": "cell-based", "experimental": "The usual formulation of a minced meat was prepared with the following ingredients:\nPreservatives were added to this basic formulation, the maximum percentage being 4% (of a fermentate having a main-salt concentration of 40%) compared with the whole of the meat-based food product.\nThe minced meats are prepared according to the following procedure:\na) Preparing of the meat: the meat and fat are cut into small pieces and minced using a mincer having a 4 mm mincing grille. The meat, fat and other ingredients are then disposed by means of a mixer of the Kenwood type having a type K stirring blade. Operate the stirring for 30 seconds (minimum power).\nb) Sampling: the product thus obtained is divided into 100 g samples and placed in plastic bags.\nc) Storage: the products obtained are packaged in stretch film and stored at a temperature of 4° C.±1° C. for 10 days.\nTwice a week, the pH, the activity of the water (Aw) and total number of aerobic bacteria were evaluated on the samples.\nThe shelf life of the product prepared without a preservative (reference) was compared with that of the product containing standard potassium lactate—Galoflow PL (Galactic SA) and that of the product containing the fermentate obtained by sugar fermentation by Bacillus coagulans spp. […] The results are set out in graph 1. […]", "data": [{"molecule": "CC(O)C(=O)[O-].[K+]", "note": "(centres unmarked) [potassium lactate]", "values": [{"measurement": "preservative effect on the meat matrix", "setting": "Example 2, minced meat, each at a concentration not impacting on the taste (0.05% potassium acetate, 2% potassium lactate), graph 2", "value": "preservative effect superior to that of potassium acetate"}, {"measurement": "effect on shelf life of the product", "setting": "Example 3, minced meat, potassium lactate with main-salt concentration 60% at various concentrations, 4° C., graph 3", "value": "increases the shelf life of the product"}]}]}
